{
  "source": "patent US20240118263A1",
  "about": "“TARGET FOR SCREENING ANTI-TUMOR DRUG, USE THEREOF AND SCREENING METHOD THEREFOR” (SHENYANG FUYANG PHARMACEUTICAL TECHNOLOGY CO., LTD., priority 2019, published 2024)",
  "key": {"[1]": {"test": "Veterinary histopathology review of major organs and clinical chemistry", "format": "in vivo", "settings": "24 days after treatment"}, "LN229 and U251 cells": {"test_system": "LN229 and U251 cells", "test": "Annexin V apoptosis flow cytometry, glioblastoma cells", "format": "cell-based", "description": "Cell apoptosis and cell cycle: Cells (2×10^5) were plated in 6-well plates and treated with different concentrations of ISP I. Then the cells were harvested and washed three times with PBS. Cells were resuspended in 100 μl binding buffer and were incubated with 5 μl APC-conjugated Annexin V working solution, a product of BD bioscience (Franklin Lakes, NJ USA), and 1 μl propidium iodide (PI), a product of Invitrogen, for 15 min at room temperature with protection from light. Data acquisition and quantification were processed with BD LSRFortessa flow cytometer, using FlowJo software (Ashland, OR USA)."}, "[2]": {"test_system": "LN229-luc intracranial tumor", "test": "Intracranial LN229-luc glioblastoma xenograft mouse model", "format": "in vivo, NSG mice", "settings": "ISP I 66 mg/kg intraperitoneally daily, vs control group", "from_the_text": "The inventors first assessed ISP I's anti-tumor activity in an intracranial mouse model (FIG. 13A). NSG mice were inoculated with 1×10^5 LN229-luc cells in the right-frontal cortex. After 7 days, intracranial tumor growth was confirmed via noninvasive in vivo bioluminescence imaging and mice were randomized into ISP I or DMSO (control) treatment groups.\nMice experiments were approved by the National Institute of Neurological Disorders and Stroke (NINDS) and National Cancer Institute (NCI) Animal Use and Care Committees. For intracranial xenografts establishment, NOD-Prkde^scidIl2rg^tmiWjl (NSG) mice (6-8 weeks old from the NCI-Frederick animal facility) were inoculated intracranially with 100,000 LN229-luc cells suspended in 2 μL Hank's Balanced Salt Solution (HBSS), a product of Crystalgen (Commack, NY USA). After one week, luciferin signals were detected to confirm the survival of tumor cells in mice. The mice were assigned to the indicated groups according to the signal intensity, in order to keep the baseline balanced. ISP I was injected intraperitoneally daily at a dose of 66 mg/kg body weight for 24 days. The mice in control group were injected with the same volume of corn oil or saline. The viability of tumors was monitored every four days. […]"}, "[3]": {"test_system": "human non-small cell lung cancer cells A549", "method": "Experimental Materials Human non-small cell lung cancer cells A549, mouse breast cancer cells 4T-1 and mouse melanoma B16-BL6 were purchased from American Type Current Collection (ATCC, Rockville, MD, USA). An RPMI-1640 culture solution containing 10% of fetal calf serum and 2% of glutamine was inoculated with the A549, 4T-1 and B16-BL6 cells, and the cells were incubated at 37° C. in a 5% CO2 incubator.\nThe compounds were dissolved in DMSO under a sterile condition, and the obtained solutions were diluted to required concentrations by using an RPMI 1640 culture solution, wherein the final concentration of the DMSO was less than 0.5%.\nMTT reduction method is used.\nA549, 4T-1 and B16-BL6 were used as adherent cells, adherent tumor cells in a logarithmic phase were selected, digested with pancreatin, and then prepared into a cell suspension of 5×10^4/ml with a culture medium containing 10% of calf serum, a 96-well culture plate was inoculated with the cell suspension, wherein each well contained 100 μl of the cell suspension, and incubation was carried out for 24 h at 37° C. and 5% CO2. Replacing was carried out with a new culture solution containing the samples to be detected of different concentrations in the experimental groups, replacing was carried out with a culture solution containing a same volume of solvent in the control group, three parallel wells were set in each group, and incubation was carried out for 48 hours at 37° C. and 5% CO2. The supernate was discarded, careful washing was carried out with PBS twice, 100 μl of a freshly prepared culture medium containing 0.5 mg/ml of MTT was added into each well, and incubation was continued to be carried out at 37° C. for 4 h. The supernatant was carefully discarded, 150 μl of DMSO was added, uniform mixing was carried out for 10 min by using a micro oscillator, and the optical density value was measured at 492 nm by using a microplate reader.\nTumor cell growth inhibition ratio (%)=[A492 (negative control)−A492 (dosing group)]/A492 (negative control)×100%\nThe median inhibitory concentration (IC50) of the sample is calculated."}, "SELH": {"target": "SELH (Homo sapiens (Human), UniProt Q8IZQ5)", "sequence (Q8IZQ5 whole entry)": "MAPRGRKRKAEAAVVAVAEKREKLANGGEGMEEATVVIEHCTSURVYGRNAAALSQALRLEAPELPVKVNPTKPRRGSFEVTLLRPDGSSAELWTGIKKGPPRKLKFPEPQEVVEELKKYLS", "test": "Thermo-stability assay (CETSA) in LN229 and 786-O cell lines", "format": "binding", "settings": "western blot, vs DMSO", "from_the_text": "Next, the inventors used a thermo-stability assay to confirm SELH was targeted by ISP I in LN229 and 786-O cell lines. The principle of the assay is based on altered protein thermal stabilization/destabilization due to ligand binding in living cells. […] (FIG. 11B and FIG. 12A). To verify further the specificity of ISP I's targeting of SELH, the inventors designed a surface plasmon resonance assay to assess the interaction of ISP I with SELH synthesized in bacteria.\nCETSA experiments were performed to determine the ISP I-related ligand induced shifts. Intact and live cells in a 10-cm dish were harvested, washed and resuspended in PBS with protease inhibitor cocktail. Protein of the cells was extracted by freeze-thaw more than three times, using liquid nitrogen. The supernatant was centrifuged at 20,000 g for 20 min at 4° C. Then the samples were aliquoted to several groups incubated with different concentrations of ISP I for 1 hour. After that, samples were aliquoted into PCR tubes and thereafter heated at gradient temperature ranging from 40° C. to 80° C. for 3 min. Then the samples were centrifuged again and resolved using 4-12% SDS-PAGE followed by western blot experiments."}, "[4]": {"test_system": "SELH-deficient LN229 cells and RCC cells (786-O and RCC4)", "test": "CCK8 assay in SELH-deficient (CRISPR/CAS9) cells", "format": "cell-based", "settings": "CCK8, compared to wild-type cells", "from_the_text": "SELH knockout LN229 cell lines and B16 were generated using the CRISPR/Cas9 technique described by Shalem et al., Science 343: 84 (2014). The gDNA for targeting SELH was designed as follows: Oligo 1, 5′-[…]-3′; Oligo 2, 5′-[…]-3′; the gDNA for targeting mouse SELH was designed as follows: Oligo 1, 5′-[…]-3′; Oligo 2, 5′-[…]-3′, and subcloned into Cas9 carrying vector (pX330). The two resultant plasmids and puromycin-expressing vector (pPGK-puro) were co-transfected at a ratio of 1:1:1 into LN229 or B16 cells using Lipofectamine 2000 (Invitrogen). Twenty-four hours later, the transfected cells were subjected to puromycin (Sigma) at 1 μg/mL for 7 days. One week after selection, the surviving clones were expanded, followed by extraction of total protein for standard western blotting analysis."}, "786-O and RCC4 cells": {"test_system": "786-O and RCC4 cells", "test": "Cell cycle analysis by flow cytometry, RCC cells", "format": "cell-based", "description": "Cell viability was assessed similarly via CKK8 analysis. […] (FIG. 10C, D).\nFor monitoring cell-cycle arrest of ISP I-treated cells, Click-iT EdU Flow Cytometry Assay Kits were used, a product of ThermoFisher Scientific. Cells were co-cultured with EdU at a concentration of 10 μM for 1 hour. After fixation and permeabilization, EdU-positive cells were labeled with Alexa Fluor 647 fluorescein. DAPI also was used for measuring total DNA content to identify differences in cell cycle phases. Data were collected by means of a BD LSRFortessa flow cytometer using FlowJo software. Cells that are positive with EdU and DAPI were in S-Phase of the cell cycle."}},
  "note": "Entries after “also recorded” stand apart in the source; their conditions may differ.",
  "data": [
    {"smiles": "CO[C@@H]1[C@@H](O[C@@H]2O[C@H](C)[C@@H](O[C@H]3C[C@@](C)(O)[C@@H](OC(=O)CC(C)C)[C@H](C)O3)[C@H](N(C)C)[C@H]2O)[C@@H](CC=O)C[C@@H](C)[C@@H](O[C@H]2CC[C@H](N(C)C)[C@@H](C)O2)/C=C/C=C/C[C@@H](C)OC(=O)C[C@H]1O", "note": "[Isovalerylspiramycin I, 4″-isovalerylspiramycin I]", "values": [
      {"measurement": "toxicities in major organs and clinical chemistry", "setting": "[1]", "result": "no hematologic, renal, pancreatic or liver toxicities"},
      {"measurement": "apoptosis (Annexin V stain)", "setting": "LN229 and U251 cells", "result": "dose-dependent apoptosis"},
      {"measurement": "tumor growth by bioluminescence imaging", "setting": "[2]", "result": "significantly reduced tumor growth; also recorded: complete response"},
      {"measurement": "A549 IC50 cytotoxicity", "setting": "[3]", "result": 1.29, "unit": "µg/mL"},
      {"measurement": "thermal protection of SELH", "setting": "SELH", "result": "protective effect of ISP I on SELH was present over a range of increasing temperatures"},
      {"measurement": "response of SELH-deficient cells to treatment", "setting": "[4]", "result": "SELH-deficient cells were resistant to ISP I treatment"},
      {"measurement": "cell-cycle arrest", "setting": "786-O and RCC4 cells", "result": "induced cell-cycle arrest in the G0/G1 phase"}
    ]}
  ]
}
